Measurements: patent US20260327191A1, “GSK3a INHIBITORS AND METHODS OF USE THEREOF” (Blueprint Medicines Corporation, priority 2023, published 2026)

How the values were obtained:
[1] = biological target: T1, human GSK3α (Homo sapiens, UniProt P49840); assay: In vitro enzymatic activity assay, GSK3α; assay type: biochemical; details: 1.0 mM ATP, 1.0 μM peptide substrate, 120 min, 25° C, read-out: Enzyme GSK3α (IC50)
T1 construct: Full length human GSK3α or GSK3B expressed as N-terminal GST fusion proteins; GST (N); purchased Carna Biosciences (Japan); host or cells: baculovirus host
T1 sequence (P49840 whole entry, the tested form may be a part): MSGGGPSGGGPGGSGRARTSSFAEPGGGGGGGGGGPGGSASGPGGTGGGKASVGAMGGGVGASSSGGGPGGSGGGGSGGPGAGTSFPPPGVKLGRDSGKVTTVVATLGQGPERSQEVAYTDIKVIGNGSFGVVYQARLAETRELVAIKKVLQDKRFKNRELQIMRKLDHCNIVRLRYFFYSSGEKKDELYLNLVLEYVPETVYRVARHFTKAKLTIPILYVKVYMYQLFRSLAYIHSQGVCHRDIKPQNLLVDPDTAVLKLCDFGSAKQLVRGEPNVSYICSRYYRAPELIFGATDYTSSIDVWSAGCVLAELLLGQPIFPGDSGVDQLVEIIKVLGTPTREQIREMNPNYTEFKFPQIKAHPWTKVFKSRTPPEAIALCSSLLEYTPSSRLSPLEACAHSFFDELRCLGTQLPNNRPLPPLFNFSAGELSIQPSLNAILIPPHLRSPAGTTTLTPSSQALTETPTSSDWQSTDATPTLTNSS

[2] = biological target: T2, GSK3A (Homo sapiens, UniProt P49840); assay: NanoBRET cellular target engagement assay, Nanoluc-GSK3A in HEK293 cells; assay type: cell-based; details: NanoBRET GSK3α IC50, HEK293 cells, tracer K-8, 2 hours, 37° C
T2 construct: expressed in transfected cells
T2 sequence (P49840 whole entry): as the sequence (P49840 whole entry, the tested form may be a part) above

[3] = biological target: T3, GSK3B (Homo sapiens, UniProt P49841); assay: NanoBRET cellular target engagement assay, Nanoluc-GSK3B in HEK293 cells; assay type: cell-based; parameters: expressed in transfected cells; details: NanoBRET GSK3β IC50, HEK293 cells, tracer K-8, 2 hours, 37° C
T3 sequence (P49841 whole entry, the tested form may be a part): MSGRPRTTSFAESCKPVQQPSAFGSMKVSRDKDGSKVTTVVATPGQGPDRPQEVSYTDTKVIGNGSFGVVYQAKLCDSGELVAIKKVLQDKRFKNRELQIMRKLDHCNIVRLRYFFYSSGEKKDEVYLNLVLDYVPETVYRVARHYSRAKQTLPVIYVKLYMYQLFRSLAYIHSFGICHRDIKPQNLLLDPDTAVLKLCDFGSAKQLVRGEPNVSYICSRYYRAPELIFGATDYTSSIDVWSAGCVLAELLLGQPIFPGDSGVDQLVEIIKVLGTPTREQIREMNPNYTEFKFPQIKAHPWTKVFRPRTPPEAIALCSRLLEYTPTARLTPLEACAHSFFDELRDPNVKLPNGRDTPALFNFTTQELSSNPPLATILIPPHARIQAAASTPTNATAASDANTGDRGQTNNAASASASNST

[4] = biological target: T3, GSK3B; assay: In vitro enzymatic activity assay, GSK3β; assay type: biochemical; parameters: Full length human GSK3α or GSK3B expressed as N-terminal GST fusion proteins; GST (N); purchased Carna Biosciences (Japan); host or cells: baculovirus host; details: 1.0 mM ATP, 1.0 μM peptide substrate, 120 min, 25° C, read-out: Enzyme GSK3β (IC50)

| SMILES | IC50 [1] | IC50 [2] | IC50 [3] | IC50 [4] |
| --- | --- | --- | --- | --- |
| C#CCC(N)c1cncc(NC(=O)c2c(N)ncn(-c3c(Cl)cc(OCC)cc3Cl)c2=O)c1 (single isomer, unassigned) [Example 151, (R)-4-amino-N-(5-(1-aminobut-3-yn-1-yl)pyridin-3-yl)-1-(2,6-dichloro-4-ethoxyphenyl)-6-oxo-1,6-dihydropyrimidine-5-carboxamide or (S)-4-amino-N-(5-(1-aminobut-3-yn-1-yl)pyridin-3-yl)-1-(2,6-dichloro-4-ethoxyphenyl)-6-oxo-1,6-dihydropyrimidine-5-carboxamide] | 0.0149 µM | 0.0071 µM | 0.406 µM | 0.501 µM |
| Cc1cc(CCF)cc(C)c1-n1cnc(N)c(C(=O)Nc2cncc(C(C)N)c2)c1=O (single isomer, unassigned) [Example 155, (R)-4-amino-N-(5-(1-aminoethyl)pyridin-3-yl)-1-(4-(2-fluoroethyl)-2,6-dimethylphenyl)-6-oxo-1,6-dihydropyrimidine-5-carboxamide or (S)-4-amino-N-(5-(1-aminoethyl)pyridin-3-yl)-1-(4-(2-fluoroethyl)-2,6-dimethylphenyl)-6-oxo-1,6-dihydropyrimidine-5-carboxamide] | 0.0099 µM | 0.0037 µM | 0.279 µM | 0.374 µM |
| COCc1cc(C)c(-n2cnc(N)c(C(=O)Nc3cncc(C4CNC(=O)CN4)c3)c2=O)c(C)c1 (single isomer, unassigned) [Example 159, (R)-4-amino-1-(4-(methoxymethyl)-2,6-dimethylphenyl)-6-oxo-N-(5-(5-oxopiperazin-2-yl)pyridin-3-yl)-1,6-dihydropyrimidine-5-carboxamide or (S)-4-amino-1-(4-(methoxymethyl)-2,6-dimethylphenyl)-6-oxo-N-(5-(5-oxopiperazin-2-yl)pyridin-3-yl)-1,6-dihydropyrimidine-5-carboxamide] | 0.0906 µM | 0.0769 µM | 5.79 µM | 2.08 µM |
| COCc1cc(C)c(-n2cnc(N)c(C(=O)Nc3cncc(C4CNC(=O)CN4)c3)c2=O)c(C)c1 (single isomer, unassigned) [Example 160, (R)-4-amino-1-(4-(methoxymethyl)-2,6-dimethylphenyl)-6-oxo-N-(5-(5-oxopiperazin-2-yl)pyridin-3-yl)-1,6-dihydropyrimidine-5-carboxamide or (S)-4-amino-1-(4-(methoxymethyl)-2,6-dimethylphenyl)-6-oxo-N-(5-(5-oxopiperazin-2-yl)pyridin-3-yl)-1,6-dihydropyrimidine-5-carboxamide] | 0.161 µM | 0.197 µM | 11.3 µM | 2.32 µM |
| COc1ccccc1-n1cnc(N)c(C(=O)Nc2cccc(C3CCCN3)c2N2CCOCC2)c1=O (single isomer, unassigned) [Example 166, (S)-4-amino-1-(2-methoxyphenyl)-N-(2-morpholino-3-(pyrrolidin-2-yl)phenyl)-6-oxo-1,6-dihydropyrimidine-5-carboxamide or (R)-4-amino-1-(2-methoxyphenyl)-N-(2-morpholino-3-(pyrrolidin-2-yl)phenyl)-6-oxo-1,6-dihydropyrimidine-5-carboxamide] | 0.285 µM | 0.177 µM | 16.1 µM | 9.38 µM |
| Nc1ncn(-c2c(Cl)cccc2Cl)c(=O)c1C(=O)Nc1cccc(C2CCCN2)c1F (single isomer, unassigned) [Example 167, (S)-4-amino-1-(2,6-dichlorophenyl)-N-(2-fluoro-3-(pyrrolidin-2-yl)phenyl)-6-oxo-1,6-dihydropyrimidine-5-carboxamide or (R)-4-amino-1-(2,6-dichlorophenyl)-N-(2-fluoro-3-(pyrrolidin-2-yl)phenyl)-6-oxo-1,6-dihydropyrimidine-5-carboxamide] | 0.0454 µM | 0.0272 µM | 1.86 µM | 1.81 µM |
| Nc1ncn(-c2c(Cl)cccc2Cl)c(=O)c1C(=O)Nc1cccc(C2CCCN2)c1F (single isomer, unassigned) [Example 168, (S)-4-amino-1-(2,6-dichlorophenyl)-N-(2-fluoro-3-(pyrrolidin-2-yl)phenyl)-6-oxo-1,6-dihydropyrimidine-5-carboxamide or (R)-4-amino-1-(2,6-dichlorophenyl)-N-(2-fluoro-3-(pyrrolidin-2-yl)phenyl)-6-oxo-1,6-dihydropyrimidine-5-carboxamide] | 0.0493 µM | 0.0271 µM | 1.47 µM | 1.53 µM |

Now those with a lower IC50 [1], led by results:

| IC50 [1] | IC50 [2] | IC50 [3] | IC50 [4] | SMILES |
| --- | --- | --- | --- | --- |
| 0.0072 µM | 0.0043 µM | 0.349 µM | 0.317 µM | CCc1cc(C)c(-n2cnc(N)c(C(=O)Nc3cncc(C4CCCCCN4)c3)c2=O)c(C)c1 (single isomer, unassigned) [Example 148, (R)-4-amino-N-(5-(azepan-2-yl)pyridin-3-yl)-1-(4-ethyl-2,6-dimethylphenyl)-6-oxo-1,6-dihydropyrimidine-5-carboxamide or (S)-4-amino-N-(5-(azepan-2-yl)pyridin-3-yl)-1-(4-ethyl-2,6-dimethylphenyl)-6-oxo-1,6-dihydropyrimidine-5-carboxamide] |
| 0.0011 µM | 0.001 µM | 0.0495 µM | 0.0442 µM | C#CCC(N)c1cncc(NC(=O)c2c(N)ncn(-c3c(Cl)cc(OCC)cc3Cl)c2=O)c1 (single isomer, unassigned) [Example 150, (R)-4-amino-N-(5-(1-aminobut-3-yn-1-yl)pyridin-3-yl)-1-(2,6-dichloro-4-ethoxyphenyl)-6-oxo-1,6-dihydropyrimidine-5-carboxamide or (S)-4-amino-N-(5-(1-aminobut-3-yn-1-yl)pyridin-3-yl)-1-(2,6-dichloro-4-ethoxyphenyl)-6-oxo-1,6-dihydropyrimidine-5-carboxamide] |
| 0.0078 µM | 0.0064 µM | 0.491 µM | 0.346 µM | CCC(N)c1cncc(NC(=O)c2c(N)ncn(-c3c(Cl)cncc3Cl)c2=O)c1 (single isomer, unassigned) [Example 153, (R)-4-amino-N-(5-(1-aminopropyl)pyridin-3-yl)-1-(3,5-dichloropyridin-4-yl)-6-oxo-1,6-dihydropyrimidine-5-carboxamide or (S)-4-amino-N-(5-(1-aminopropyl)pyridin-3-yl)-1-(3,5-dichloropyridin-4-yl)-6-oxo-1,6-dihydropyrimidine-5-carboxamide] |
| 0.0042 µM | 0.002 µM | 0.103 µM | 0.105 µM | COc1c(NC(=O)c2c(N)ncn(-c3c(Cl)cccc3Cl)c2=O)cccc1C1CCCN1 (single isomer, unassigned) [Example 169, (R)-4-amino-1-(2,6-dichlorophenyl)-N-(2-methoxy-3-(pyrrolidin-2-yl)phenyl)-6-oxo-1,6-dihydropyrimidine-5-carboxamide or (S)-4-amino-1-(2,6-dichlorophenyl)-N-(2-methoxy-3-(pyrrolidin-2-yl)phenyl)-6-oxo-1,6-dihydropyrimidine-5-carboxamide] |
